The results in this text go back to patent US9879006B2, “Azaindole acetic acid derivatives and their use as prostaglandin D2 receptor modulators” (IDORSIA PHARMACEUTICALS LTD, priority 2014, dated 2018).

Molecules are shown by their SMILES.

The subject of series [1] is primary cultured rat hepatocytes. Put plainly: In vitro cytotoxicity in primary cultured rat hepatocytes. Type of series: cell-based. The conditions noted are these: 24 h treatment, cell morphology and LDH leakage, highest test concentration 300 μM; for LCC (lowest cytotoxic concentration): 300s = only slight cytotoxicity at 300 μM. From the text: In Vitro Cytotoxicity in Primary Cultured Rat Hepatocytes
Adult male Wistar rats were narcotized with sodium pentobarbital and hepatocytes were isolated according to a standard procedure, i.e. by in situ perfusion of the liver with a collagenase solution. The viability of the purified hepatocytes, checked by the trypan blue dye exclusion method was greater than 85%. The isolated hepatocytes were resuspended in standard Williams Medium E, without phenol red, supplemented (WME supp.) with transferrin (100 μg/ml), triiodothyronine (10 μg/ml), gentamicin (50 μg/ml), hydrocortison hemisuccinate (13.36 μg/ml), glucagon (5 μg/ml), HEPES (10 mM), inosin (10 μg/ml), insulin (10 μg/ml), streptomycin (100 μg/ml) and penicillin (100 U/ml) and 10% fetal bovine serum (FBS). The cells were plated in collagen-coated 24-well plates at an initial density of 2×10^5 cells/well. After 4 h for attachment to the culture-plates, the medium was aspirated and replaced by fresh WME supp. without FBS containing the test compounds and incubated for 24 h at 37° C. in a […] and 5% CO2 atmosphere. For each experiment, i.e., with each batch of hepatocytes, treatments with the test compounds were done in quadriplicate. Quadriplicate controls (treatment with the vehicle only) were also present on each culture plate.
Stock solutions of the test compounds were prepared in DMSO a few hours before treatment start. Appropriate dilutions of these stock solutions were added to the culture media just prior to the treatment in order to give final concentrations of 0, 3, 10, 30, 100 and 300 μM. The final concentration of the vehicle DMSO was 1% (v/v).
The morphology of the hepatocyte monolayers was monitored by light microscopy after 24 hours of exposure to the test compounds. Treatment related effects are described according to the following grading: • 0 No morphological alterations observed upon treatment when compared to the control cultures • 1-3 Treatment resulting in any morphological changes, e.g. intracellular granulation, vacuolization or cell death. Depending on the severity, these changes were regarded as slight (1), moderate (2) or strong (3). • K Treatment resulting in 100% dead cells and/or the complete detachment of the monolayer yielding a clear cell-free dish.
After 24 h treatment of the hepatocyte cultures, aliquots of culture medium were carefully collected and used for the analysis of lactate dehydrogenase (LDH) activity by spectrophotometry using the LDH cytotoxicity detection kit from Clontech (cat No. 630117, Mountain View, Calif., USA). For each experiment, additional cultures were used for the determination of total intracellular LDH activity at treatment start. For this purpose, 4 wells of cell culture per experiment were washed with cold saline before treatment start, sonicated in fresh medium and the homogenate was analyzed for total LDH activity. Enzyme activities in the culture media were assessed and expressed as percentage of the total activity present in the cultured hepatocytes at the beginning of the treatments.
The lowest cytotoxic concentration (LCC) and the no effect concentration (NoEC) are given for each compound, based on cell morphology and LDH leakage after 24 h treatment. LCC is defined as the lowest concentration of the test compound leading to a clear effect on the cultured rat hepatocytes (morphology grading≧2 or ≧2-fold increase in LDH leakage). A LCC value of >300 μM indicates the absence of effect on both endpoints at the highest test concentration of 300 μM. […] NoEC is defined as the highest test concentration of the compound which was without an effect on the cultured rat hepatocytes (morphology and LDH leakage).
A general note: LDH leaks from cells whose membrane has failed.

Series [2] has as its target T1, hCRTH2 receptor (Homo sapiens, UniProt Q9Y5Y4).
T1 construct: expressed in transfected cells; host or cells: HEK293 (recombinant HEK293-hCRTH2), membrane fragments
T1 sequence (Q9Y5Y4 1-395): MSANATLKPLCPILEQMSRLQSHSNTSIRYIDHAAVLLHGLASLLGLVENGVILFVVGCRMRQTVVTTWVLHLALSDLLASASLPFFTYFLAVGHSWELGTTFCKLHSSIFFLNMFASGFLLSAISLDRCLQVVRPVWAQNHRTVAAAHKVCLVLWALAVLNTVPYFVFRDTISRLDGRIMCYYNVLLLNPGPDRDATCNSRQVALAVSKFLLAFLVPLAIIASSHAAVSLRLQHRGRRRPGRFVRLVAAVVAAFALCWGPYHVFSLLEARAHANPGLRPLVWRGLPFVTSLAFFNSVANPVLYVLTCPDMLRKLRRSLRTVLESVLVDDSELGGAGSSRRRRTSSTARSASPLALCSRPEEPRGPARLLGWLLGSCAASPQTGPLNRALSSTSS
Kind of series: Radioligand displacement assay in presence of human serum albumin (HSA). The conditions noted are these: displacement of 3H-PGD2, Binding-Buffer with 0.5% human serum albumin instead of 0.1% BSA. The protocol: (§1) First, recombinant HEK293-hCRTH2 cells were detached from culture plates into 5 ml buffer A/plate (Buffer A: 5 mM Tris, 1 mM MgCl2-6H2O pH=7.4) using a rubber policeman. Cells were then transferred into centrifugation tubes and centrifuged for 5 min at 400 g. The cell pellet was resuspended in the same buffer and tubes were frozen at 80° C. Cells were thawed and membrane fragments were generated by homogenization using a polytron homogenizer (30 seconds). The membrane fragments were then centrifuged at 3000 g for 20 minutes and resuspended in buffer C (Buffer C: 75 mM Tris, 25 mM MgCl2, 250 mM Saccharose pH 7.4). Aliquots of membrane fragments were stored at −20° C.
(§2) Binding assay was performed in a final assay volume of 250 μl. First, 25 μl of test compound, previously diluted in Binding-Buffer (Binding-Buffer: 50 mM Tris-Base, 100 mM NaCl, 1 mM EDTA, 0.1% BSA (protease free), 0.01% NaN3, 10 mM MnCl2 pH 7.0) was placed into each well. After addition of 75 μl Binding-Buffer, 50 μl of the radioligand ^3H-PGD2 (at 2.5 nM (220.000 dpm/well) from ANAWA ART0662) was added to each well. Binding assay was started by addition of 100 μl CRTH2 membrane fragments, reaching a final concentration of 20 μg/well. For non-specific binding, PGD2 was added to the reaction mixture to […] final concentration. This assay mix was incubated for 90 minutes at room temperature and then filtered through a GF/C filter 96-well plate which was pre-soaked for 3 hours in 0.5% polyethyleneimine (PEI). The filter-wells were washed three times with ice cold Binding-Buffer. Then, 40 μl of Microscint-40 (Packard) was added to each well and the retained radioactivity quantified in a Topcount (Packard).
Radioligand Displacement Assay-Human Serum Albumin (HSA):
Radioligand displacement assay in presence of human serum albumin (HSA) was performed as described above, with following modifications. Binding-Buffer-HSA: Binding-buffer+0.5% Sigma Albumin from Human serum A1887 (instead of 0.1% BSA). A volume of 25 μl test compound, previously diluted in Binding-Buffer-HSA was placed into each well. After addition of 75 μl Binding-Buffer-HSA, 50 μl of ^3H-PGD2 (at 2.5 nM (220.000 dpm/well) from ANAWA ART0662) was added to each well. Remaining protocol was identical as described above.
On the technique in general: Loss of bound radioactivity is the signal in a displacement assay; it reports binding, not function.

For series [3], the target named is T1, hCRTH2 receptor. Put plainly: hCRTH2 receptor membranes radioligand displacement assay. The note with it: displacement of 3H-PGD2 (2.5 nM), HEK293-hCRTH2 membrane fragments, Binding-Buffer with 0.1% BSA. The procedure:
Preparation of hCRTH2 Receptor Membranes and Radioligand Displacement Assay:
as §1, §2

The subject of series [4] is eosinophils (PGD2-induced shape change). Kind of series: Eosinophil shape change assay with human plasma. The class given is cell-based. The conditions noted are these: human polymorphonuclear cells, 50% human plasma, activated with PGD2 100 nM, flow cytometry forward-scatter. The protocol:
Eosinophil Shape Change Assay with Human Plasma
After obtaining informed consent, blood samples were drawn by venipuncture according to the protocol approved by the ethics committee of Basel, Switzerland. Polymorphonuclear leukocytes (containing eosinophils, basophils and neutrophils) were isolated using the Polymorphprep™ method (Axis-Shield). In brief, anticoagulated whole blood was layered onto a Polymorphprep gradient (density 1.113 g/ml) and centrifuged at 500 g for 30 min. The polymorphonuclear cell fraction was harvested and depleted for erythrocytes by hypotonic saline lysis.
The polymorphonuclear cells were resuspended in assay buffer (1×PBS with Ca^2+/Mg^2+ supplemented with 0.1% BSA, 10 mM HEPES, and 10 mM Glucose, pH 7.4) at 5×10^6 cells/ml and stained with anti-CD49d-APC ((APC=Allophycocyanin) for 1 hour at RT. Test compounds, at various concentrations, were preincubated 10 min in human plasma (anticoagulated with a thrombin inhibitor). Then, human plasma was added to the polymorphonuclear cells to 50% of final assay volume with polymorphonuclear cells at 4×10^6 cells/ml. After incubation for 10 minutes at 37° C., the polymorphonuclear cells were activated for 5 min at 37° C. by addition of PGD2 at 100 nM final concentration. Activation was stopped by addition of 0.5 ml paraformaldehyde (1%).
Immediately after fixation with paraformaldehyde, the samples were analyzed by FACSCanto flow cytometer (BD Biosciences) and target cells were identified by their forward-scatter (FSC) and side-scatter (SSC) characteristics. Eosinophils were identified by the anti-CD49d-APC signal and their characteristic side-scatter (SSC) profile. Shape change responses, indicative of eosinophil activation, were quantified as the percent of cells with an increased forward-scatter.
In general terms: Flow cytometry measures light scatter and fluorescence of single cells or particles in a stream.

For the compound `CN(c1ncc(Cl)cn1)[C@H]1CCc2c(c3cc(F)ccc3n2CC(=O)O)C1`, in series [1], the “NoEC (no effect concentration)” value was determined as 30 µM and the “LCC (lowest cytotoxic concentration)” value worked out at 300 µM.

On to `Cc1ccc2c(n1)c1c(n2CC(=O)O)CCC(N(C)c2ncc(Cl)cn2)C1` (stereo not drawn) [Example 1, 2-(8-((5-chloropyrimidin-2-yl)(methyl)amino)-2-methyl-6,7,8,9-tetrahydro-5H-pyrido[3,2-b]indol-5-yl)acetic acid], for which the IC50 was found to be 0.0039 µM at hCRTH2 receptor [2], 0.0019 µM at hCRTH2 receptor [3] and 0.071 µM in series [4].

With `CN(c1ncc(Cl)cn1)C1CCc2c(c3nc(F)ccc3n2CC(=O)O)C1` (stereo not drawn) [Example 2, 2-(8-((5-chloropyrimidin-2-yl)(methyl)amino)-2-fluoro-6,7,8,9-tetrahydro-5H-pyrido[3,2-b]indol-5-yl)acetic acid], the IC50 at hCRTH2 receptor [2] stood at 0.0023 µM; on hCRTH2 receptor [3], 0.0031 µM; in series [4], 0.0042 µM.

On to `COc1ccc2c(n1)c1c(n2CC(=O)O)CCC(N(C)c2ncc(Cl)cn2)C1` (stereo not drawn) [Example 3, 2-(8-((5-chloropyrimidin-2-yl)(methyl)amino)-2-methoxy-6,7,8,9-tetrahydro-5H-pyrido[3,2-b]indol-5-yl)acetic acid], for which the IC50 is 0.013 µM at hCRTH2 receptor [2], 0.013 µM at hCRTH2 receptor [3] and 0.148 µM in series [4].

Take `CN(c1ncc(Cl)cn1)C1CCc2c(c3nc(C(F)(F)F)ccc3n2CC(=O)O)C1` (stereo not drawn) [Example 4, 2-(8-((5-chloropyrimidin-2-yl)(methyl)amino)-2-(trifluoromethyl)-6,7,8,9-tetrahydro-5H-pyrido[3,2-b]indol-5-yl)acetic acid]: the results for the IC50 (at hCRTH2 receptor [2]; on hCRTH2 receptor [3]; in series [4]) were 0.016 µM, 0.01 µM and 0.417 µM, respectively.

Regarding `O=C(O)Cn1c2c(c3ncccc31)CC(Nc1ncc(Cl)cn1)CC2` (stereo not drawn) [Example 5, 2-(8-((5-chloropyrimidin-2-yl)-amino)-6,7,8,9-tetrahydro-5H-pyrido[3,2-b]indol-5-yl)acetic acid], the 50% inhibitory concentration (IC50) on hCRTH2 receptor [2] came to 0.022 µM; at hCRTH2 receptor [3] it was 0.019 µM; in series [4] it was 0.088 µM.

With `CN(c1ncc(Cl)cn1)[C@H]1CCc2c(c3ncccc3n2CC(=O)O)C1` [Example 6, (S)-2-(8-((5-chloropyrimidin-2-yl)(methyl)amino)-6,7,8,9-tetrahydro-5H-pyrido[3,2-b]indol-5-yl)acetic acid], the values for the IC50 (at hCRTH2 receptor [2]; on hCRTH2 receptor [3]; in series [4]) were 0.0021 µM, 0.0023 µM and 0.0058 µM, respectively.

With `Cc1ccc2c(n1)c1c(n2CC(=O)O)CCC(N(C)c2ncc(Cl)cn2)C1` (stereo not drawn) [drawing 27], in series [1], the “NoEC (no effect concentration)” value was greater than 300 µM and the “LCC (lowest cytotoxic concentration)” value is greater than 300 µM.

For `CN(c1ncc(Cl)cn1)C1CCc2c(c3nc(F)ccc3n2CC(=O)O)C1` (stereo not drawn) [drawing 28], in series [1], the “NoEC (no effect concentration)” value is greater than 300 µM and the “LCC (lowest cytotoxic concentration)” value is greater than 300 µM.

Consider `COc1ccc2c(n1)c1c(n2CC(=O)O)CCC(N(C)c2ncc(Cl)cn2)C1` (stereo not drawn) [drawing 29], for which, in series [1], the “NoEC (no effect concentration)” value came out at 100 µM and the “LCC (lowest cytotoxic concentration)” value came out at 300 s.

Regarding `CN(c1ncc(Cl)cn1)C1CCc2c(c3nc(C(F)(F)F)ccc3n2CC(=O)O)C1` (stereo not drawn) [drawing 30], in series [1], the “NoEC (no effect concentration)” value turned out to be 100 µM and the “LCC (lowest cytotoxic concentration)” value turned out to be 300 s.

Regarding `CN(c1ncc(Cl)cn1)[C@H]1CCc2c(c3ncccc3n2CC(=O)O)C1` [drawing 31], in series [1], the “NoEC (no effect concentration)” value was greater than 300 µM and the “LCC (lowest cytotoxic concentration)” value is greater than 300 µM.

Consider `CN(c1ncc(Cl)cn1)[C@H]1CCc2c(c3ncccc3n2CC(=O)O)C1` [drawing 32], for which, in series [1], the “NoEC (no effect concentration)” value came out at 30 µM and the “LCC (lowest cytotoxic concentration)” value is 300 µM.

Consider `CN(c1ncc(Cl)cn1)[C@H]1CCc2c(c3nc(F)ccc3n2CC(=O)O)C1` [drawing 33], for which, in series [1], the “NoEC (no effect concentration)” value was greater than 300 µM and the “LCC (lowest cytotoxic concentration)” value was greater than 300 µM.

Take `O=C(O)Cn1c2c(c3nc(F)ccc31)C[C@@H](Nc1ncc(Cl)cn1)CC2` [drawing 35]: in series [1], the “NoEC (no effect concentration)” value was greater than 300 µM and the “LCC (lowest cytotoxic concentration)” value was greater than 300 µM.

The term IC50 denotes the concentration at which inhibition is half-maximal.
